Experimental findings from US11111233B2, “Amino pyrimidine compound for inhibiting protein tyrosine kinase activity” (Shenzhen TargetRx, Inc., priority 2016, dated 2021) are described below.

Read-outs that look alike come from different tables or passages of the source. Some results are limits rather than exact numbers.

The test system of assay [1] is Skin cancer cell line A431 (WT). Nature of the assay: Cytotoxicity test (MTS cell viability), A431. In kind it is cell-based.
Assay [2] deals with lung cancer cells HCC827 (Del19). Kind of assay: Cytotoxicity test (MTS cell viability), HCC827. In kind it is cell-based.
The target in another assay is WT EGFR (Homo sapiens (Human), UniProt P00533). Nature of the assay: Kinase inhibition assay (HTRF), WT EGFR. In kind it is biochemical. The conditions noted are these: HTRF Kinase TK kit, 10 min pre-incubation, 20 min reaction.
Sequence of WT EGFR (P00533 25-1210): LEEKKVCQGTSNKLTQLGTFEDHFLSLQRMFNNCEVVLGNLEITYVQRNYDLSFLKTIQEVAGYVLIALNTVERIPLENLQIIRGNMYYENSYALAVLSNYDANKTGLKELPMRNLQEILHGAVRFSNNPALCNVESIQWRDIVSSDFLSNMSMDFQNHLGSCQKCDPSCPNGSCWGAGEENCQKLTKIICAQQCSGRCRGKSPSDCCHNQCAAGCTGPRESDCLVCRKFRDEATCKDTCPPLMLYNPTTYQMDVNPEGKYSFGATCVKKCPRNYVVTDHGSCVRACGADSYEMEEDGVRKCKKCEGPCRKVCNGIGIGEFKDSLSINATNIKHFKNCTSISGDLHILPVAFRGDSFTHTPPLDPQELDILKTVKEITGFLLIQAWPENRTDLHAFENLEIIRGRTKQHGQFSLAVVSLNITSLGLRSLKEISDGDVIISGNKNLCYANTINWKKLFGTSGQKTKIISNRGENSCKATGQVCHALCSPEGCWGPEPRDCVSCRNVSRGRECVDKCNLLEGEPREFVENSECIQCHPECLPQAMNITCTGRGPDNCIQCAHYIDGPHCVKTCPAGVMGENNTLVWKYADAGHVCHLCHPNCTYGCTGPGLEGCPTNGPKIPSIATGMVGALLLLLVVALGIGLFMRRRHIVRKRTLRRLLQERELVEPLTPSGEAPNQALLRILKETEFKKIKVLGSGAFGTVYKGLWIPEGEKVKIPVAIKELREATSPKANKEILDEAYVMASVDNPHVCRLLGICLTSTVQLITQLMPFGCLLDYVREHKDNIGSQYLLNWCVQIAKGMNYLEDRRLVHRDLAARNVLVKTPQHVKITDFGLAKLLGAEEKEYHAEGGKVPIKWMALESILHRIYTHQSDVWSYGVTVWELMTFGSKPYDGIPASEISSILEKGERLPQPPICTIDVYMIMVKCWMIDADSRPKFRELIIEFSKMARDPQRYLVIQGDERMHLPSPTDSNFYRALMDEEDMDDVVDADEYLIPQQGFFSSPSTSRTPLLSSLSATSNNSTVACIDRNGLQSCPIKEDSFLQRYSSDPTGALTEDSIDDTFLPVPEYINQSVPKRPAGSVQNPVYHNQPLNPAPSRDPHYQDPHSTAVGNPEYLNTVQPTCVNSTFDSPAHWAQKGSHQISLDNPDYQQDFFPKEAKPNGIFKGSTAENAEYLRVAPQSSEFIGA
The next assay concerns the target EGFR [L858R/T790M] (Homo sapiens (Human), UniProt P00533, L858R/T790M). Nature of the assay: Kinase inhibition assay (HTRF), EGFR [L858R/T790M]. The assay is classed as biochemical. The settings on record: HTRF Kinase TK kit, 10 min pre-incubation, 20 min reaction; read-out: EGFR(L858R/T790M) IC50. For orientation: Time-resolved FRET reads energy transfer from a long-lived donor to a nearby acceptor.

[3] abbreviates: Homo sapiens, A-431, 72 h, read-out: A431 (WT) IC50(nM).
The mark [4] stands for this setting: Homo sapiens, HCC827, 72 h, read-out: HCC827 (Del19) IC50(nM).
Where [5] appears, read: Homo sapiens, A-431, MTS, 72 hours, read-out: A431 (WT) IC50.
[6] abbreviates: Homo sapiens, HCC827, MTS, 72 hours, read-out: HCC827 (Del19) IC50.

Sequence of EGFR [L858R/T790M] (P00533 25-1210 T790M/L858R): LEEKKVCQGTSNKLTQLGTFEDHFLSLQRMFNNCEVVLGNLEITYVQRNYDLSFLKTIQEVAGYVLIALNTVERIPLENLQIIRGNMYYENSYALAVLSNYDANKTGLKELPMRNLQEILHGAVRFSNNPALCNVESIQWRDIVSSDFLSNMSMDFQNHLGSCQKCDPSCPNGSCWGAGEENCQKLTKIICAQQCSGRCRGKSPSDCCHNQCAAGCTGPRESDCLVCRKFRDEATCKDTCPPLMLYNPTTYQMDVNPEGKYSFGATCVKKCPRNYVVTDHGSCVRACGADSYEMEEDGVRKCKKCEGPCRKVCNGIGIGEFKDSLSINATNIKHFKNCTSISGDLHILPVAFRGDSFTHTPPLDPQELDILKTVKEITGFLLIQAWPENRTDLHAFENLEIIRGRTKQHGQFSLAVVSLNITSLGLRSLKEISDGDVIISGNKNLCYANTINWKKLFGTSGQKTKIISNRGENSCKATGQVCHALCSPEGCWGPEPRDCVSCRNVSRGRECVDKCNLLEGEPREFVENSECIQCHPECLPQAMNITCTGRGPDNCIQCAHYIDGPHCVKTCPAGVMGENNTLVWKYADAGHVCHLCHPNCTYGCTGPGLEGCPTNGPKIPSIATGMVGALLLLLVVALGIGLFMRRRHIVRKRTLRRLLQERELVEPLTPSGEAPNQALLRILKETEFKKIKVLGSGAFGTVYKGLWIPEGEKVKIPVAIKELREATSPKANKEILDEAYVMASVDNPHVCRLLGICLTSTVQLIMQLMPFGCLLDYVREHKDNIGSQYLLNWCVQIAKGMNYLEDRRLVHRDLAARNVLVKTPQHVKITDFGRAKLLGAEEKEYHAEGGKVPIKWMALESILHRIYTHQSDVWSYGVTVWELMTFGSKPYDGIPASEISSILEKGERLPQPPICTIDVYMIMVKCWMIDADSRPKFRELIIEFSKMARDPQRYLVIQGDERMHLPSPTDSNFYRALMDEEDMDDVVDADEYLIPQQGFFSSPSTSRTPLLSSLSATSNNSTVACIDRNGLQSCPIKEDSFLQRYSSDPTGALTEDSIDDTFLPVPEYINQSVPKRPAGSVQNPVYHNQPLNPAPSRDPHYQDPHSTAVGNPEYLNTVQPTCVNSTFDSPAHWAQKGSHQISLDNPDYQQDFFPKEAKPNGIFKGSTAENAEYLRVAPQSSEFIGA

For the compound `C=CC(=O)Nc1cc(Nc2nccc(-c3cn(C)c4ccccc34)n2)c(OC)cc1N(C)CCN(C)C` [AZD9291, reference compound], the IC50 lay in the range of 100 to 400 nM in assay [1] (setting [3]) and 10 to 100 nM in assay [2] (setting [4]).

As to `C=CC(=O)Nc1cc(Nc2ncc(Cl)c(-c3cc(F)c4nc(C)n(C(C)C)c4c3)n2)c(OC)cc1N(C)CCN(C)C` [Example 1, N-(2-((2-(dimethylamino)ethyl)(methyl)amino)-5-((5-chloro-4-(4-fluoro-1-isopropyl-2-methyl-1H-benzo[d]imidazole-6-yl)pyrimidin-2-yl)amino)-4-methoxyphenyl)acrylamide], the IC50 on WT EGFR is 1 to 50 nM; in assay [1] (setting [5]), > 1000 nM; in assay [2] (setting [6]), 10 to 100 nM.

Regarding `C=CC(=O)Nc1cc(Nc2ncc(C)c(-c3cc(F)c4nc(C)n(C(C)C)c4c3)n2)c(OC)cc1N(C)CCN(C)C` [Example 2, N-(2-((2-(dimethylamino)ethyl)(methyl)amino)-5-((5-methyl-4-(4-fluoro-1-isopropyl-2-methyl-1H-benzo[d]imidazole-6-yl)pyrimidin-2-yl)amino)-4-methoxyphenyl)acrylamide], the IC50 was 1 to 50 nM against WT EGFR, < 1 nM on EGFR [L858R/T790M], > 1000 nM in assay [1] (setting [5]) and 10 to 100 nM in assay [2] (setting [6]).

With `C=CC(=O)Nc1cc(Nc2ncc(OC)c(-c3cc(F)c4nc(C)n(C(C)C)c4c3)n2)c(OC)cc1N(C)CCN(C)C` [Example 3, N-(2-((2-(dimethylamino)ethyl)(methyl)amino)-5-((5-methoxy-4-(4-fluoro-1-isopropyl-2-methyl-1H-benzo[d]imidazole-6-yl)pyrimidin-2-yl)amino)-4-methoxyphenyl)acrylamide], the IC50 at WT EGFR and on EGFR [L858R/T790M] was 1 to 50 nM in each case.

For the compound `C=CC(=O)Nc1cc(Nc2ncc(C(F)(F)F)c(-c3cc(F)c4nc(C)n(C(C)C)c4c3)n2)c(OC)cc1N(C)CCN(C)C` [Example 4, N-(2-((2-(dimethylamino)ethyl)(methyl)amino)-5-((5-trifluoromethyl-4-(4-fluoro-1-isopropyl-2-methyl-1H-benzo[d]imidazole-6-yl)pyrimidin-2-yl)amino)-4-methoxyphenyl)acrylamide], the figures for the IC50 at WT EGFR and on EGFR [L858R/T790M] were 1 to 50 nM and < 1 nM, respectively.

For `C=CC(=O)Nc1cc(Nc2nccc(-c3cc(F)c4nc5n(c4c3)C(C)(C)CC5)n2)c(OC)cc1N(C)CCN(C)C` [Example 5, N-(2-((2-(dimethylamino)ethyl)(methyl)amino)-5-((4-(5-fluoro-1,1-dimethyl-2,3-dihydro-1H-benzo[d]imidazole[1,2-a]pyrrol-6-yl)pyrimidin-2-yl)amino)-4-methoxyphenyl)acryl amide], the IC50 was 1 to 50 nM at WT EGFR and < 1 nM at EGFR [L858R/T790M].

For `C=CC(=O)Nc1cc(Nc2nccc(-c3cc(F)c4nc(OC)n(C(C)C)c4c3)n2)c(OC)cc1N(C)CCN(C)C` [Example 6, N-(2-((2-(dimethylamino)ethyl)(methyl)amino)-5-((4-(4-fluoro-1-isopropyl-2-methoxy-1H-benzo[d]imidazole-6-yl)pyrimidin-2-yl)amino)-4-methoxyphenyl)acrylamide], the IC50 was 1 to 50 nM against WT EGFR, < 1 nM at EGFR [L858R/T790M], > 1000 nM in assay [1] (setting [5]) and 10 to 100 nM in assay [2] (setting [6]).

Consider `C=CC(=O)Nc1cc(Nc2nccc(-c3cc(F)c4nc(OC)n(C(C)C)c4c3)n2)c(OC)cc1OCCN(C)C` [Example 7], for which the IC50 against WT EGFR is 1 to 50 nM; in assay [1] (setting [3]) it was > 1000 nM; in assay [2] (setting [4]) it was 10 to 100 nM.

As to `C=CC(=O)Nc1cc(Nc2ncc(Br)c(-c3cc(F)c4nc(C)n(C(C)C)c4c3)n2)c(OC)cc1N(C)CCN(C)C` [Example 8, N-(2-((2-(dimethylamino)ethyl)(methyl)amino)-5-((5-bromo-4-(4-fluoro-1-isopropyl-2-methyl-1H-benzo[d]imidazole-6-yl)pyrimidin-2-yl)amino)-4-methoxyphenyl)acrylamide], the IC50 against WT EGFR is 1 to 50 nM; at EGFR [L858R/T790M], 1 to 50 nM; in assay [1] (setting [5]), > 1000 nM; in assay [2] (setting [6]), 10 to 100 nM.

On to `C=CC(=O)Nc1cc(Nc2ncc(C3CC3)c(-c3cc(F)c4nc(C)n(C(C)C)c4c3)n2)c(OC)cc1N(C)CCN(C)C` [Example 9, N-(2-((2-(dimethylamino)ethyl)(methyl)amino)-5-((5-cyclopropyl-4-(4-fluoro-1-isopropyl-2-methyl-1H-benzo[d]imidazole-6-yl)pyrimidin-2-yl)amino)-4-methoxyphenyl)acrylamide], for which the IC50 at WT EGFR was > 100 nM; at EGFR [L858R/T790M], 1 to 50 nM; in assay [1] (setting [5]), > 1000 nM; in assay [2] (setting [6]) it was 400 to 1000 nM.

As for `C=CC(=O)Nc1cc(Nc2nccc(-c3cc(F)c4nc(C)n(C(C)C)c4c3)n2)c(OC)cc1SCCN(C)C` [Example 11, N-(2-(2-(dimethylamino)ethyl)(thio)-5-((4-(4-fluoro-1-isopropyl-2-methyl-1H-benzo[d]imidazole-6-yl)pyrimidin-2-yl)amino)-4-methoxyphenyl)acrylamide], the IC50 is 1 to 50 nM at WT EGFR, 400 to 1000 nM in assay [1] (setting [3]) and 10 to 100 nM in assay [2] (setting [4]).

Turning to `C=CC(=O)Nc1cc(Nc2nccc(-c3cc(F)c4nc(C)n(C(C)C)c4c3)n2)c(OC)cc1OCCN(C)C` [Example 12, N-(2-(2-(dimethylamino)ethyl)(oxy)-5-((4-(4-fluoro-1-isopropyl-2-methyl-1H-benzo[d]imidazole-6-yl)pyrimidin-2-yl)amino)-4-methoxyphenyl)acrylamide], the values for the IC50 in assay [1] (setting [3]) and in assay [2] (setting [4]) were 100 to 400 nM and < 10 nM, respectively.

Take `C=CC(=O)Nc1cc(Nc2nccc(-c3cc(F)c4nc(C)n(C(C)C)c4c3)n2)c(OC)cc1N1CCC(OC)CC1` [Example 15]: the IC50 is 1 to 50 nM on EGFR [L858R/T790M], > 1000 nM in assay [1] (setting [5]) and 100 to 400 nM in assay [2] (setting [4]).

As for `C=CC(=O)Nc1cc(Nc2nccc(-c3cc(F)c4nc(C)n(C(C)C)c4c3)n2)c(OC)cc1N1CCOCC1` [Example 16], the IC50 at EGFR [L858R/T790M] is 1 to 50 nM; in assay [1] (setting [5]), > 1000 nM; in assay [2] (setting [4]), 100 to 400 nM.

On to `C=CC(=O)Nc1cc(Nc2ncc(C#N)c(-c3cc(F)c4nc(C)n(C(C)C)c4c3)n2)c(OC)cc1N(C)CCN(C)C` [Example 18, N-(2-((2-(dimethylamino)ethyl)(methyl)amino)-5-((5-cyano-4-(4-fluoro-1-isopropyl-2-methyl-1H-benzo[d]imidazole-6-yl)pyrimidin-2-yl)amino)-4-methoxyphenyl)acrylamide], for which the IC50 against WT EGFR is 1 to 50 nM; on EGFR [L858R/T790M], < 1 nM.

For the compound `C=CC(=O)Nc1cc(Nc2ncc(F)c(-c3cc(F)c4nc(C)n(C(C)C)c4c3)n2)c(OC)cc1N(C)CCN(C)C` [Example 19, N-(2-((2-(dimethylamino)ethyl)(methyl)amino)-5-((5-fluoro-4-(4-fluoro-1-isopropyl-2-methyl-1H-benzo[d]imidazole-6-yl)pyrimidin-2-yl)amino)-4-methoxyphenyl)acrylamide], the IC50 is 1 to 50 nM on WT EGFR and < 1 nM at EGFR [L858R/T790M].

`C=CC(=O)Nc1cc(Nc2nccc(-c3cc(F)c4oc(C)nc4c3)n2)c(OC)cc1N(C)CCN(C)C` [Example 31, N-(2-((2-(dimethylamino)ethyl)(methyl)amino)-5-((4-(7-fluoro-2-methylbenzo[d]oxazole-5-yl)pyrimidin-2-yl)amino)-4-methoxyphenyl)acrylamide]: the IC50 in assay [1] (setting [5]) was > 1000 nM.

As to `C=CC(=O)Nc1cc(Nc2nccc(-c3ccc4ncn(C(C)C)c4c3)n2)c(OC)cc1N(C)CCN(C)C` [Example 36, N-(2-((2-(dimethylamino)ethyl)(methyl)amino)-5-((4-(1-isopropyl-1H-benzo[d]imidazole-6-yl)pyrimidin-2-yl)amino)-4-methoxyphenyl)acrylamide], the IC50 on WT EGFR is 1 to 50 nM; on EGFR [L858R/T790M] it was < 1 nM.

As to `C=CC(=O)Nc1cc(Nc2nccc(-c3ccc4nc(C(F)(F)F)n(C(C)C)c4c3)n2)c(OC)cc1N(C)CCN(C)C` [Example 37, N-(2-((2-(dimethylamino)ethyl)(methyl)amino)-5-((4-(1-isopropyl-2-(trifluoromethyl)-1H-benzo[d]imidazole-6-yl)pyrimidin-2-yl)amino)-4-methoxyphenyl)acrylamide], the IC50 against WT EGFR and at EGFR [L858R/T790M] was 1 to 50 nM each time.

On to `C=CC(=O)Nc1cc(Nc2nccc(-c3cc(F)c4c(cnn4C)c3)n2)c(OC)cc1N(C)CCN(C)C` [Example 39, N-(2-((2-(dimethylamino)ethyl)(methyl)amino)-5-((4-(7-fluoro-1-methyl-indazole-5-yl)pyrimidin-2-yl)amino)-4-methoxyphenyl)acrylamide], for which, in assay [1] (setting [3]), the IC50 lay within 100 to 400 nM.

As to `C=CC(=O)Nc1cc(Nc2nccc(-c3cc(F)c4nc(C)n(C(C)C)c4c3)n2)c(OC(F)F)cc1N(C)CCN(C)C` [Example 47], the IC50 was 1 to 50 nM at WT EGFR, 400 to 1000 nM in assay [1] (setting [5]) and < 10 nM in assay [2] (setting [4]).

On to `COc1cc(N2CCN(C)CC2)ccc1Nc1nccc(-c2cc(F)c3nc(C)n(C(C)C)c3c2)n1` [Example 54, 4-(4-fluoro-1-isopropyl-2-methyl-1H-benzo[d]imidazole-6-yl)-N-(2-methoxy-4-(4-methylpiperazin-1-yl)phenyl)pyrimidin-2-amine], for which the IC50 in assay [1] (setting [5]) lay in the range of 400 to 1000 nM.

With “N-(2-(4-ethoxypiperidin)-1-yl)-5-((4-(4-fluoro-1-isopropyl-2-methyl-1H-benzo[d]imidazole-6-yl)pyrimidin-2-yl)amino)-4-methoxyphenyl)acrylamide [Example 14]”, the IC50 in assay [1] (MTS, 72 hours, read-out: A431 (WT) IC50) was > 1000 nM; in assay [2] (MTS, 72 hours, read-out: HCC827 (Del19) IC50), 400 to 1000 nM.
